From paper PMC6213216, “AbeTx1 Is a Novel Sea Anemone Toxin with a Dual Mechanism of Action on Shaker-Type K^+ Channels Activation” (Marine Drugs, 2018)
Positions of bridges follow the written chain, without caps; N, C: chain ends. Residues, ends and D or L forms follow the SMILES beside them.

Tests used:
Assay type in all cases: cell-based
hERG = biological target: T1, hERG (Homo sapiens, UniProt Q12809); test: Two-electrode voltage-clamp on Xenopus laevis oocytes expressing hERG (KV11.1); conditions: 3 µM AbeTx1; TEVC, X. laevis oocytes, +40 mV pulse 2.5 s then −120 mV 2.5 s
T1 construct: expressed in transfected cells; host or cells: Xenopus laevis oocytes injected with cRNA
T1 sequence (Q12809 whole entry): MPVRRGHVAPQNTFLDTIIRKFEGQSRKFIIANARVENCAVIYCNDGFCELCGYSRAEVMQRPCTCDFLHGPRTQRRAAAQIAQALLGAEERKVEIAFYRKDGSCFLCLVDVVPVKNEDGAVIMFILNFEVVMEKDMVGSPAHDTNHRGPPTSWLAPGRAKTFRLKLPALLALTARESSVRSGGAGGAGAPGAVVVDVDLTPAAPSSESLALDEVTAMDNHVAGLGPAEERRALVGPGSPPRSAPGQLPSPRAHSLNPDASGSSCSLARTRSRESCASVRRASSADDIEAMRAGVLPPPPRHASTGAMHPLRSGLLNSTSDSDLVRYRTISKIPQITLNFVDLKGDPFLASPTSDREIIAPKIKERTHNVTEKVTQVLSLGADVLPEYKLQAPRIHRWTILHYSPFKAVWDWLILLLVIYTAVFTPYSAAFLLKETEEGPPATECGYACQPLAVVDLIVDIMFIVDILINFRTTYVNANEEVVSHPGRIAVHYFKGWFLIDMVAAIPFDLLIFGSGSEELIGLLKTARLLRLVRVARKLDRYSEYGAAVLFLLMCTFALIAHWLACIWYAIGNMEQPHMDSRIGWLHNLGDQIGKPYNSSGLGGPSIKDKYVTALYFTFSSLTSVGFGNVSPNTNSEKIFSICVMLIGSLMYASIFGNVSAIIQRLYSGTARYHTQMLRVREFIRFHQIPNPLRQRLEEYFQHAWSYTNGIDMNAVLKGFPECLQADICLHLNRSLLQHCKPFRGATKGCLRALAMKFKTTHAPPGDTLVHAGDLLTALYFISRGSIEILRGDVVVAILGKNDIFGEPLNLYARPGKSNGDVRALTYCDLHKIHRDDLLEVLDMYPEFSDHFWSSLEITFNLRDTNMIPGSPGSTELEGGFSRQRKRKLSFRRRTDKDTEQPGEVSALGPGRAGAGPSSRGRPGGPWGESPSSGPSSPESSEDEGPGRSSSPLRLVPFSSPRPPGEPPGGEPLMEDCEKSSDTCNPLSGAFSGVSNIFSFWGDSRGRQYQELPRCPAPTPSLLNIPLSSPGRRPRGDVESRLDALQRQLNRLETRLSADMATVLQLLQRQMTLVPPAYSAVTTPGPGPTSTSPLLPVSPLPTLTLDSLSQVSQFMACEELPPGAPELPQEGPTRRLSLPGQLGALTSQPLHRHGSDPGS
Method: (§1) The pharmacological effect of AbeTx1 was analyzed by heterologous expression of 12 voltage-gated potassium channels isoforms (rKV1.1, Genbank NM173095; rKV1.2, Genbank NM012970; hKV1.3, Genbank L23499; rKV1.4,Genbank NM012971; rKV1.5, Genbank NM012972; rKV1.6, Genbank NM575671; Shaker IR from Drosophila melanogaster, Genbank CG12348; rKV2.1, Genbank NM013186; hKV3.1, Genbank NM004976; rKV4.2, Genbank NM031730; rKV4.3, Genbank NM031739 and hERG, Genbank NM000238), and three voltage-gated sodium channel subtypes (rNaV1.2, Genbank NM012647; rNaV1.4, Genbank M26643 and BgNaV1.1, from Blattella germanica) (r, rat; h, human) in oocytes from Xenopus laevis. The linearized plasmids were transcribed using a T7 or SP6 mMESSAGE-mMACHINE transcription kit (Life Technologies, Austin, TX, USA). […]
(§2) Two-electrode voltage-clamp recordings were performed at room temperature (18–22 °C) using a Geneclamp 500 amplifier (Molecular Devices, Sunnyvale, CA, USA) controlled by a pClamp data acquisition system (Axon Instruments, Union City, CA, USA). […] Whole-cell currents from oocytes were recorded 1–3 days after injection. […] Data were analyzed using Clampfit 10.4 (Molecular Devices, Sunnyvale, CA, USA) and Origin v8.1 software (Origin Lab, Northampton, MA, USA), under the institutional license of the University of São Paulo.

rNaV1.2 = biological target: T2, rNaV1.2 (Rattus norvegicus, UniProt P04775); test: Two-electrode voltage-clamp on Xenopus laevis oocytes expressing rNaV1.2; conditions: 3 µM AbeTx1; TEVC, X. laevis oocytes, 100 ms depolarization from −90 mV to 0 mV
T2 construct: expressed in transfected cells; host or cells: Xenopus laevis oocytes injected with cRNA
T2 sequence (P04775 whole entry): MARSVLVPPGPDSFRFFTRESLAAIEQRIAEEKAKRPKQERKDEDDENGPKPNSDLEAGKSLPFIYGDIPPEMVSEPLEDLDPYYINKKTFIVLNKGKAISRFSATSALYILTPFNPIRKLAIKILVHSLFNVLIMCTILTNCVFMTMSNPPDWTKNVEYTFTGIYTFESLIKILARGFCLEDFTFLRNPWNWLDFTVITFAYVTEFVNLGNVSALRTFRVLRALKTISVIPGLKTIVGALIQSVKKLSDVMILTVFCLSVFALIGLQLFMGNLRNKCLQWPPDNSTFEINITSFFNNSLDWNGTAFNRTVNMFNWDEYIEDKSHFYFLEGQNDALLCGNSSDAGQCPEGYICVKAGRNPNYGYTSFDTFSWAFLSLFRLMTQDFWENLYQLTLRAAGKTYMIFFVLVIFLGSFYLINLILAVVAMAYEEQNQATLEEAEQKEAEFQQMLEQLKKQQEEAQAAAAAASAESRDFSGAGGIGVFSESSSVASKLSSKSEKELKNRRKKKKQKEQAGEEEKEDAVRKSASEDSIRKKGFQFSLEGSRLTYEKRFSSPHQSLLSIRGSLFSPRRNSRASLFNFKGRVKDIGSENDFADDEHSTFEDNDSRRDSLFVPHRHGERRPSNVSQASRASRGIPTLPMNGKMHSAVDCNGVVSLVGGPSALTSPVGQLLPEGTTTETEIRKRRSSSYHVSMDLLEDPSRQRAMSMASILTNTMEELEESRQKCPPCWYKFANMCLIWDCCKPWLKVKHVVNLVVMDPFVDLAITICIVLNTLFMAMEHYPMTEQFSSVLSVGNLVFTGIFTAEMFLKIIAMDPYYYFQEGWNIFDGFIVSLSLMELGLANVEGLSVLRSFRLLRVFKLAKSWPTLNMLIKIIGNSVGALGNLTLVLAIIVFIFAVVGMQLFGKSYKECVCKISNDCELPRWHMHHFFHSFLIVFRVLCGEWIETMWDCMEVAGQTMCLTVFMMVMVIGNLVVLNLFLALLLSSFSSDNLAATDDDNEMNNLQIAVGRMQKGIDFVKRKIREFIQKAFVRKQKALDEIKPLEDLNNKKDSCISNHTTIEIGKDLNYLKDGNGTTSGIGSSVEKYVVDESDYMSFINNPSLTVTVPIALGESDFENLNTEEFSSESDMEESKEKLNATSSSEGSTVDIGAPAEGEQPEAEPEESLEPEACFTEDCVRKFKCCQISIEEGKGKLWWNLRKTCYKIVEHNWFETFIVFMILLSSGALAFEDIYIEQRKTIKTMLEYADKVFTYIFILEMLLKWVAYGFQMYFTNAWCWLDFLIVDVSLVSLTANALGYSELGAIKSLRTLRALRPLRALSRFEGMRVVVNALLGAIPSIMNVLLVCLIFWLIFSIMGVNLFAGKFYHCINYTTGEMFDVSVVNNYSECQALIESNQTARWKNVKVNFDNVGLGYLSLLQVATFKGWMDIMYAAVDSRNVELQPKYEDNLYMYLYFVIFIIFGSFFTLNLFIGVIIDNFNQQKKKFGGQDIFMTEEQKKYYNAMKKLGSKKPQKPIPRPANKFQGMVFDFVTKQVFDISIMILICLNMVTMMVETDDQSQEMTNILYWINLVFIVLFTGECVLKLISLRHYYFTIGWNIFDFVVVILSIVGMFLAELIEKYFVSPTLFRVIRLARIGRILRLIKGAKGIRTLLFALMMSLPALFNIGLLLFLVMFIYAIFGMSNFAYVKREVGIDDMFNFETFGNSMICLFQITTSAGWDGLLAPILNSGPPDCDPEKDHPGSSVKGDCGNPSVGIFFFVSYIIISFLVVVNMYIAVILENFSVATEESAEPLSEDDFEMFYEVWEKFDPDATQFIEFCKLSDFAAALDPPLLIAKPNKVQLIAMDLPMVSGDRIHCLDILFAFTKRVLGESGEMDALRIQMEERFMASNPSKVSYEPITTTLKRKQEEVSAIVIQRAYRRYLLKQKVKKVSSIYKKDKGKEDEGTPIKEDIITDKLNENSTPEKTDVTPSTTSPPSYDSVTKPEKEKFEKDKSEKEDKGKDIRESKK
Method: as §1, §2

rKV1.6 = biological target: T3, rKV1.6 (Rattus norvegicus, UniProt P17659); test: Two-electrode voltage-clamp on Xenopus laevis oocytes expressing rKV1.6; conditions: for IC50: concentration-response curve, percentage blocked current fitted with Hill equation, TEVC oocytes, 0 mV from −90 mV, read-out: KV1.6 IC50
T3 construct: expressed in transfected cells; host or cells: Xenopus laevis oocytes injected with cRNA
T3 sequence (P17659 whole entry): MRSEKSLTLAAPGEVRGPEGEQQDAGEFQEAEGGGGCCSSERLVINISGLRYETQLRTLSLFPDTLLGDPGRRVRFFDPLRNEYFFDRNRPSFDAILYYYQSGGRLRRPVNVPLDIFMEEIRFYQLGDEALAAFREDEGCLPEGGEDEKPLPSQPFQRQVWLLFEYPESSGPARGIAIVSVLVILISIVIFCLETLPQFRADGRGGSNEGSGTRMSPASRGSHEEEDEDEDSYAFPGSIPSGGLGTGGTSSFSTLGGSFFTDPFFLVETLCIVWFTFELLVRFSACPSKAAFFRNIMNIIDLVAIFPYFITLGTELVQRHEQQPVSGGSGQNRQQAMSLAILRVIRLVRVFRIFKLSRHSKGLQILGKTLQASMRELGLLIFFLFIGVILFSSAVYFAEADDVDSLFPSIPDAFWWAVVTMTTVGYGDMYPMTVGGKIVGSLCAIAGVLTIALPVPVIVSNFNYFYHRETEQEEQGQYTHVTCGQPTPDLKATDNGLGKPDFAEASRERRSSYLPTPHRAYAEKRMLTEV
Method: (§3) The pharmacological effect of AbeTx1 was analyzed by heterologous expression of 12 voltage-gated potassium channels isoforms (rKV1.1, Genbank NM173095; rKV1.2, Genbank NM012970; hKV1.3, Genbank L23499; rKV1.4,Genbank NM012971; rKV1.5, Genbank NM012972; rKV1.6, Genbank NM575671; Shaker IR from Drosophila melanogaster, Genbank CG12348; rKV2.1, Genbank NM013186; hKV3.1, Genbank NM004976; rKV4.2, Genbank NM031730; rKV4.3, Genbank NM031739 and hERG, Genbank NM000238), and three voltage-gated sodium channel subtypes (rNaV1.2, Genbank NM012647; rNaV1.4, Genbank M26643 and BgNaV1.1, from Blattella germanica) (r, rat; h, human) in oocytes from Xenopus laevis. The linearized plasmids were transcribed using a T7 or SP6 mMESSAGE-mMACHINE transcription kit (Life Technologies, Austin, TX, USA). Oocytes were injected with 20–50 nL of cRNA at a concentration of 1 ng·nL^−1 using a microinjector (Drummond Scientific, Broomall, PA, USA). The oocytes were stored for 1–3 days at 16 °C until sufficient expression of voltage-gated ion channels was achieved. Oocytes were maintained in an ND96 solution (in mM: 96 NaCl, 2 KCl, 1.8 CaCl2, 2 MgCl2 and 5 HEPES; pH 7.4), supplemented with 50 µg·mL^−1 gentamicin sulfate.
(§4) Two-electrode voltage-clamp recordings were performed at room temperature (18–22 °C) using a Geneclamp 500 amplifier (Molecular Devices, Sunnyvale, CA, USA) controlled by a pClamp data acquisition system (Axon Instruments, Union City, CA, USA). ND96 was used as bath solution. Whole-cell currents from oocytes were recorded 1–3 days after injection. Voltage and current electrodes were filled with KCl (3 M). The resistance of both electrodes was kept between 0.8–1.0 MΩ. The elicited currents were filtered at 0.5 or 2 kHz using a four-pole low-pass Bessel filter. Leak subtraction was performed using a -P/4 protocol. KV1.1-KV1.6 and Shaker IR currents were evoked by 500 ms depolarization to 0 mV, followed by a 500 ms pulse to −50 mV, from a holding potential of −90 mV. KV2.1, KV3.1, KV4.2, and KV4.3 currents were elicited by 500 ms pulses to + 20 mV from a holding potential of −90 mV. Current traces of hERG channels were elicited by applying a +40 mV pulse for 2.5 s, followed by a step to −120 mV for 2.5 s. Sodium current traces were evoked by 100 ms depolarization steps from a holding potential of −90 mV to 0 mV. Concentration-response curves were constructed by adding different AbeTx1 or analogs concentrations directly to the bath solution. The percentage of the KV blockade was plotted against the logarithm of the applied concentrations and fitted with the Hill Equation (1):y = 100/[1 + (IC50/[toxin]) × h](1) where y is the amplitude of the toxin-induced effect, IC50 is the toxin concentration at half-maximal efficacy, [toxin] is the toxin concentration, and h is the Hill coefficient. To investigate the effects on the voltage dependence of activation, current traces were evoked by 10 mV depolarization steps from a holding potential of −90 mV. Data were normalized to the maximal K^+ current amplitude, plotted against prepulse potential, and fitted using the Boltzmann Equation (2):IK/Imax = [1 + (exp(Vg − V)/k] − 1(2) where Imax represents maximal potassium current (IK), Vg is the voltage corresponding to half-maximal current, and k is the slope factor. Each experimental data represents mean ± standard error of at least three oocytes (n ≥ 3) from different frogs. Effect of the toxin on current-voltage experiments was statistically examined by comparing the control condition and the presence of toxin using the Student’s paired t-test. P-values < 0.05 are considered to be statistically significant. Data were analyzed using Clampfit 10.4 (Molecular Devices, Sunnyvale, CA, USA) and Origin v8.1 software (Origin Lab, Northampton, MA, USA), under the institutional license of the University of São Paulo.

rNaV1.4 = biological target: T4, rNaV1.4 (Rattus norvegicus, UniProt P15390); test: Two-electrode voltage-clamp on Xenopus laevis oocytes expressing rNaV1.4; conditions: 3 µM AbeTx1; TEVC, X. laevis oocytes, 100 ms depolarization from −90 mV to 0 mV
T4 construct: expressed in transfected cells; host or cells: Xenopus laevis oocytes injected with cRNA
Method: as §1, §2

Shaker IR = biological target: T5, Shaker IR (Drosophila melanogaster, UniProt P08510, DEL6-46); test: Two-electrode voltage-clamp on Xenopus laevis oocytes expressing Shaker IR; conditions: 3 µM AbeTx1; TEVC, X. laevis oocytes, 500 ms depolarization to 0 mV from holding −90 mV; mean ± SE, n ≥ 3; SEM; read-out: inhibition of Shaker IR current
T5 construct: expressed in transfected cells; host or cells: Xenopus laevis oocytes injected with cRNA
T5 sequence (P08510 with tags, fused parts or gaps DEL6-46): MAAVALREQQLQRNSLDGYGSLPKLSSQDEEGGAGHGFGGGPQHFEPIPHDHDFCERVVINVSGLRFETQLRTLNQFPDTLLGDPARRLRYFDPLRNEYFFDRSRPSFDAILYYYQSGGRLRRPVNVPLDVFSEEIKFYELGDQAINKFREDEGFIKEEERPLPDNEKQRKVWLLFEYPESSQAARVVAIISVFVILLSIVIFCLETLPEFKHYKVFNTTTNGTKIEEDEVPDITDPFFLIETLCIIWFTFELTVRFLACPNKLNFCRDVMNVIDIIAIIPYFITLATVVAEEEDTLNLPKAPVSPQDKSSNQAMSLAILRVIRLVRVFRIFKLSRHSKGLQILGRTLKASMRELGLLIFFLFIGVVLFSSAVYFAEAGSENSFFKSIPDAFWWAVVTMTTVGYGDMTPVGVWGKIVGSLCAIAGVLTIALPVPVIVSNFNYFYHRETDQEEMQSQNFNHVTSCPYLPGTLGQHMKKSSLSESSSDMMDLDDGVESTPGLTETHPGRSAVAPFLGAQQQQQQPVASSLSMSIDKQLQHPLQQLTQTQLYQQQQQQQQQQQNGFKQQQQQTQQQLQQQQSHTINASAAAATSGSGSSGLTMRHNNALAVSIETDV
Method: as §1, §2

rKV1.2 = biological target: T6, rKV1.2 (Rattus norvegicus, UniProt P63142); test: Two-electrode voltage-clamp on Xenopus laevis oocytes expressing rKV1.2; conditions: 3 µM AbeTx1; TEVC, X. laevis oocytes, 500 ms depolarization to 0 mV from holding −90 mV; mean ± SE, n ≥ 3; SEM; read-out: inhibition of KV1.2 current
T6 construct: expressed in transfected cells; host or cells: Xenopus laevis oocytes injected with cRNA
Method: as §1, §2

rKV1.1 = biological target: T7, rKV1.1 (Rattus norvegicus, UniProt P10499); test: Two-electrode voltage-clamp on Xenopus laevis oocytes expressing rKV1.1; conditions: for IC50: concentration-response curve, percentage blocked current fitted with Hill equation, TEVC oocytes, 0 mV from −90 mV, read-out: KV1.1 IC50
T7 construct: expressed in transfected cells; host or cells: Xenopus laevis oocytes injected with cRNA
T7 sequence (P10499 whole entry): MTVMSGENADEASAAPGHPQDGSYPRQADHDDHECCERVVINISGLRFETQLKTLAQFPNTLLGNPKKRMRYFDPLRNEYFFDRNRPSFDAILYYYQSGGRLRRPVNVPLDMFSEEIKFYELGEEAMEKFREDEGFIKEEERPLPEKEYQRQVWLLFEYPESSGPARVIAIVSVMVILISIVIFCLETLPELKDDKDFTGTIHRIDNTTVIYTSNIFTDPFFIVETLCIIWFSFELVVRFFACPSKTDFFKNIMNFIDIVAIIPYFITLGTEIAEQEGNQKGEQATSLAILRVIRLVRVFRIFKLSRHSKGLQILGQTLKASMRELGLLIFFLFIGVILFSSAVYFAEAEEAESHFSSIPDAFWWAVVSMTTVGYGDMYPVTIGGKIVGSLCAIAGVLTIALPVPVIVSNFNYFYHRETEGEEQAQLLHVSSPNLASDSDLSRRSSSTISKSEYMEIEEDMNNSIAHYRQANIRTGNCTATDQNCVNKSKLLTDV
Method: as §3, §4

hKV1.3 = biological target: T8, hKV1.3 (Homo sapiens, UniProt P22001); test: Two-electrode voltage-clamp on Xenopus laevis oocytes expressing hKV1.3; conditions: 3 µM AbeTx1; TEVC, X. laevis oocytes, 500 ms depolarization to 0 mV from holding −90 mV; mean ± SE, n ≥ 3; SEM; read-out: inhibition of KV1.3 current
T8 construct: expressed in transfected cells; host or cells: Xenopus laevis oocytes injected with cRNA
Method: as §1, §2

Compound	effect on KV11.1 (hERG) current (hERG)	activity on NaV1.2 (rNaV1.2)	inhibition at 3 µM (rKV1.6; 3 µM AbeTx1, TEVC, X. laevis oocytes, 500 ms depolarization to 0 mV from holding −90 mV, mean ± SE, n ≥ 3, SEM, read-out: inhibition of KV1.6 current) [%]	reduction of KV1.6 current, toxin added on top of TEA (rKV1.6; AbeTx1 120 nM applied to bath already containing 920 μM TEA) [%]	IC50 (rKV1.6; mean ± SE, n ≥ 3, SEM) [nM]	activity on NaV1.4 (rNaV1.4)	inhibition at 3 µM (Shaker IR) [%]	inhibition at 3 µM (rKV1.2) [%]	inhibition at 3 µM (rKV1.1; 3 µM AbeTx1, TEVC, X. laevis oocytes, 500 ms depolarization to 0 mV from holding −90 mV, mean ± SE, n ≥ 3, SEM, read-out: inhibition of KV1.1 current) [%]	reduction of KV1.1 current, toxin added on top of TEA (rKV1.1; AbeTx1 600 nM applied to bath already containing 200 μM TEA, n = 6) [%]	reduction of the KV1.1 K+ current at +70 mV (rKV1.1; AbeTx1 600 nM, test potential +70 mV from holding −90 mV, n = 6) [%]	reduction of the KV1.1 K+ current at −20 mV (rKV1.1; AbeTx1 600 nM, test potential −20 mV from holding −90 mV, n = 6) [%]	IC50 (rKV1.1; mean ± SE, n ≥ 3, SEM) [nM]	inhibition at 3 µM (hKV1.3) [%]
C[C@@H](O)[C@@H]1NC(=O)[C@H](CCCCN)NC(=O)[C@@H](NC(=O)[C@@H](N)CCCNC(=N)N)CSSC[C@@H](C(=O)NCC(=O)O)NC(=O)[C@H](CC(N)=O)NC(=O)[C@@H]2CCCN2C(=O)[C@H](CCCCN)NC(=O)[C@@H]2CCCN2C(=O)[C@H](CCCNC(=N)N)NC(=O)[C@@H]2CSSC[C@H](NC1=O)C(=O)N[C@@H](CO)C(=O)N[C@@H](CCCCN)C(=O)NCC(=O)N[C@@H](CCCNC(=N)N)C(=O)N2 [AbeTx1] (H-RCKTCSKGRCRPKPNCG-OH; disulfide 2-16, 5-10)	not affected	no activity	95 ± 2.44	55.33 ± 2.47	116 ± 31.4	no activity	15.5 ± 1.8	95.3 ± 1.45	83.7 ± 1.45	71.20 ± 2.18	11.07 ± 1.12	53.47 ± 5.07	672 ± 150	19.7 ± 2.18
C[C@H](N)C(=O)N[C@H]1CSSC[C@@H](C(=O)NCC(=O)O)NC(=O)[C@H](CC(N)=O)NC(=O)[C@@H]2CCCN2C(=O)[C@H](CCCCN)NC(=O)[C@@H]2CCCN2C(=O)[C@H](CCCNC(=N)N)NC(=O)[C@@H]2CSSC[C@H](NC(=O)[C@H]([C@@H](C)O)NC(=O)[C@H](CCCCN)NC1=O)C(=O)N[C@@H](CO)C(=O)N[C@@H](CCCCN)C(=O)NCC(=O)N[C@@H](CCCNC(=N)N)C(=O)N2 [Arg1Ala] (H-ACKTCSKGRCRPKPNCG-OH; disulfide 2-16, 5-10)	–	–	–	–	3530	–	–	–	–	–	–	–	1970	–
C[C@@H]1NC(=O)CNC(=O)[C@H](CCCCN)NC(=O)[C@H](CO)NC(=O)[C@@H]2CSSC[C@H](NC1=O)C(=O)N[C@@H](CCCNC(=N)N)C(=O)N1CCC[C@H]1C(=O)N[C@@H](CCCCN)C(=O)N1CCC[C@H]1C(=O)N[C@@H](CC(N)=O)C(=O)N[C@H](C(=O)NCC(=O)O)CSSC[C@H](NC(=O)[C@@H](N)CCCNC(=N)N)C(=O)N[C@@H](CCCCN)C(=O)N[C@@H]([C@@H](C)O)C(=O)N2 [Arg9Ala] (H-RCKTCSKGACRPKPNCG-OH; disulfide 2-16, 5-10)	–	–	–	–	2440	–	–	–	–	–	–	–	8500	–
C[C@@H]1NC(=O)[C@@H]2CSSC[C@H](NC(=O)[C@H]([C@@H](C)O)NC(=O)[C@H](CCCCN)NC(=O)[C@@H](NC(=O)[C@@H](N)CCCNC(=N)N)CSSC[C@@H](C(=O)NCC(=O)O)NC(=O)[C@H](CC(N)=O)NC(=O)[C@@H]3CCCN3C(=O)[C@H](CCCCN)NC(=O)[C@@H]3CCCN3C1=O)C(=O)N[C@@H](CO)C(=O)N[C@@H](CCCCN)C(=O)NCC(=O)N[C@@H](CCCNC(=N)N)C(=O)N2 [Arg11Ala] (H-RCKTCSKGRCAPKPNCG-OH; disulfide 2-16, 5-10)	–	–	–	–	811 ± 179	–	–	–	–	–	–	–	21500	–
